Structures are written as SMILES. Several values for one entry are separate records, joined by “and”; a condition that tells them apart may be missing. Equal values may be shown once. Inconclusive results and toxic doses are left out.

This experiment deals with CD2F1 mice, L1210 leukemia ip, survival T/C. As to the kind of experiment: NCI In Vivo Anticancer Drug Screen. Data for tumor model L1210 Leukemia (intraperitoneal) in CD2F1 (CDF1) mice. As to conditions: higher = longer survival. The gist of the method: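 Each value reflects a quotient of treated over vehicle control outcomes in mice with a transplanted tumor.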
The mark [1] stands for this setting: endpoint: mean survival time, dose: 5.0 mg/kg/injection, schedule: Q01DX001 (ip), vehicle: saline.
Where [2] appears, read: endpoint: mean survival time, dose: 10.0 mg/kg/injection, schedule: Q01DX001 (ip), vehicle: saline.
[3] abbreviates: endpoint: mean survival time, dose: 20.0 mg/kg/injection, schedule: Q01DX001 (ip), vehicle: saline.
Where [4] appears, read: endpoint: mean survival time, dose: 100.0 mg/kg/injection, schedule: Q04DX002 (ip), vehicle: saline with Tween-80.
[5] abbreviates: endpoint: mean survival time, dose: 200.0 mg/kg/injection, schedule: Q04DX002 (ip), vehicle: saline with Tween-80.
[6] abbreviates: endpoint: mean survival time, dose: 50.0 mg/kg/injection, schedule: Q01DX009 (ip), vehicle: saline with Tween-80.
Setting [7] is: endpoint: mean survival time, dose: 100.0 mg/kg/injection, schedule: Q01DX009 (ip), vehicle: saline with Tween-80.
Setting [8] is: endpoint: mean survival time, dose: 200.0 mg/kg/injection, schedule: Q01DX009 (ip), vehicle: saline with Tween-80.
Where [9] appears, read: endpoint: mean survival time, dose: 100.0 mg/kg/injection, schedule: Q04DX003 (ip), vehicle: saline with Tween-80.
Where [10] appears, read: endpoint: mean survival time, dose: 200.0 mg/kg/injection, schedule: Q04DX003 (ip), vehicle: saline with Tween-80.
[11] abbreviates: endpoint: mean survival time, dose: 400.0 mg/kg/injection, schedule: Q04DX003 (ip), vehicle: saline with Tween-80.
[12] abbreviates: endpoint: mean survival time, dose: 100.0 mg/kg/injection, schedule: Q01DX001 (ip), vehicle: saline.
Where [13] appears, read: endpoint: mean survival time, dose: 200.0 mg/kg/injection, schedule: Q01DX001 (ip), vehicle: saline.
The mark [14] stands for this setting: endpoint: mean survival time, dose: 400.0 mg/kg/injection, schedule: Q01DX001 (ip), vehicle: saline.
Where [15] appears, read: endpoint: mean survival time, dose: 6.25 mg/kg/injection, schedule: Q01DX009 (ip), vehicle: saline with Tween-80.
Where [16] appears, read: endpoint: mean survival time, dose: 12.5 mg/kg/injection, schedule: Q01DX009 (ip), vehicle: saline with Tween-80.
[17] abbreviates: endpoint: mean survival time, dose: 25.0 mg/kg/injection, schedule: Q01DX009 (ip), vehicle: saline with Tween-80.

In the case of `CCN(C)c1cc2c3c(c1)CCCN3CCC2`, the T/C is, setting by setting: (endpoint: mean survival time, dose: 1.25 mg/kg/injection, schedule: Q01DX009 (ip), vehicle: saline) 103 % of control; (endpoint: mean survival time, dose: 2.5 mg/kg/injection, schedule: Q01DX009 (ip), vehicle: saline) 104 % of control; under setting [1], 100 % of control; (endpoint: mean survival time, dose: 5.0 mg/kg/injection, schedule: Q01DX009 (ip), vehicle: saline) 98 % of control; under setting [2], 101 % of control; under setting [3], 102 % of control.

In the case of `CCCC[N-]CC(O)C[NH-].O=C(O)CC(=O)O.[Pt+2]` (configuration not stated), the T/C (endpoint: median survival time, dose: 10.0 mg/kg/injection, schedule: Q04DX003 (ip), vehicle: water) is 105 % of control; the T/C (endpoint: median survival time, dose: 20.0 mg/kg/injection, schedule: Q04DX003 (ip), vehicle: water) was 103 % of control; the T/C (endpoint: median survival time, dose: 40.0 mg/kg/injection, schedule: Q04DX003 (ip), vehicle: water) is 105 % of control; the T/C (endpoint: median survival time, dose: 50.5 mg/kg/injection, schedule: Q04DX003 (ip), vehicle: water) is 103 % of control; the T/C (endpoint: median survival time, dose: 80.0 mg/kg/injection, schedule: Q04DX003 (ip), vehicle: water) is 97 % of control; the T/C (endpoint: median survival time, dose: 101.0 mg/kg/injection, schedule: Q04DX003 (ip), vehicle: water) is 103 % of control. Further, the T/C (endpoint: median survival time, dose: 202.0 mg/kg/injection, schedule: Q04DX003 (ip), vehicle: water) was 107 % of control.

For the molecule `c1ccc(N(c2ccccn2)c2ccccn2)nc1`, the T/C reads like this: (endpoint: mean survival time, dose: 25.0 mg/kg/injection, schedule: Q04DX002 (ip), vehicle: saline with Tween-80) 101 % of control; (endpoint: mean survival time, dose: 50.0 mg/kg/injection, schedule: Q04DX002 (ip), vehicle: saline with Tween-80) 101 % of control; under setting [4], 97 % of control; under setting [5], 97 % of control.

In the case of `COc1c2c(c(OC)c3c1C(=O)c1ccccc1C3=O)CC=CC2`, the T/C is 105 % of control (endpoint: mean survival time, dose: 12.5 mg/kg/injection, schedule: Q01DX009 (ip), vehicle: other); 100 % of control (endpoint: mean survival time, dose: 25.0 mg/kg/injection, schedule: Q01DX009 (ip), vehicle: other); 92 % of control (endpoint: mean survival time, dose: 44.0 mg/kg/injection, schedule: Q01DX009 (ip), vehicle: other); 96 % of control (endpoint: mean survival time, dose: 50.0 mg/kg/injection, schedule: Q01DX009 (ip), vehicle: other); 90 % of control (endpoint: mean survival time, dose: 66.0 mg/kg/injection, schedule: Q01DX009 (ip), vehicle: other); 121 % of control and 90 % of control (endpoint: mean survival time, dose: 100.0 mg/kg/injection, schedule: Q01DX009 (ip), vehicle: other). Further, the T/C (endpoint: mean survival time, dose: 200.0 mg/kg/injection, schedule: Q01DX009 (ip), vehicle: other) is 105 % of control.

For the molecule `COc1cc(Cl)ccc1NC(=O)OCCOc1cccc(C)c1`, the T/C by setting is: under setting [6], 93 % of control; under setting [7], 101 % of control; under setting [8], 93 % of control.

With `CC(C)c1cc(C(C)C)c(S(=O)(=O)OCC2OC(OC3(COS(=O)(=O)c4c(C(C)C)cc(C(C)C)cc4C(C)C)OC(COS(=O)(=O)c4c(C(C)C)cc(C(C)C)cc4C(C)C)C(O)C3O)C(O)C(O)C2O)c(C(C)C)c1` (configuration not stated), the T/C under setting [6] is 98 % of control, the T/C under setting [7] was 95 % of control and the T/C under setting [8] is 102 % of control.

As to `O=C(c1ccccc1)N(C(=O)c1ccccc1)C1CCCCC1`, the T/C by setting is: under setting [9], 100 % of control; under setting [10], 94 % of control; under setting [11], 93 % of control.

As to `CCCCOc1ccc(Cl)cc1`, the T/C by setting is: under setting [4], 90 % of control; under setting [5], 87 % of control.

Turning to `C=CC/C=C/CCCCCC`, the T/C under setting [6] is 114 % of control, the T/C under setting [7] was 96 % of control and the T/C under setting [8] was 107 % of control.

In the case of `O=Nc1sc2ccccc2c1O`, the T/C is 104 % of control under setting [9], 96 % of control under setting [10] and 96 % of control under setting [11].

Regarding `Cc1ccc(OCC2CO2)cc1` (configuration not stated), the T/C is 104 % of control under setting [12], 95 % of control under setting [13] and 102 % of control under setting [14].

In the case of `CCCN(CCC)C(=O)[S-].CCCN(CCC)C(=O)[S-].[Ni+2]`, the T/C under setting [15] is 95 % of control; the T/C (endpoint: mean survival time, dose: 6.25 mg/kg/injection, schedule: Q04DX003 (ip), vehicle: saline sonified) is 99 % of control; the T/C under setting [16] was 106 % of control; the T/C (endpoint: mean survival time, dose: 12.5 mg/kg/injection, schedule: Q04DX003 (ip), vehicle: saline sonified) is 97 % of control; the T/C under setting [17] was 106 % of control; the T/C (endpoint: mean survival time, dose: 25.0 mg/kg/injection, schedule: Q04DX003 (ip), vehicle: saline sonified) is 103 % of control.

Take `CC(S)c1ccccc1` (configuration not stated): the T/C is 90 % of control under setting [6]; 102 % of control under setting [7]; 104 % of control under setting [9]; 104 % of control under setting [8]; 98 % of control under setting [10].

Regarding `[O-]/[N+](=C\Cc1ccccc1)c1ccccc1`, the T/C under setting [4] is 90 % of control; the T/C under setting [5] is 87 % of control; the T/C (endpoint: mean survival time, dose: 400.0 mg/kg/injection, schedule: Q04DX002 (ip), vehicle: saline with Tween-80) was 90 % of control.

Regarding `CC(=O)OC1CSC1`, the T/C reads like this: (endpoint: mean survival time, dose: 30.0 mg/kg/injection, schedule: Q01DX001 (ip), vehicle: saline with Tween-80) 106 % of control; (endpoint: mean survival time, dose: 60.0 mg/kg/injection, schedule: Q01DX001 (ip), vehicle: saline with Tween-80) 109 % of control; (endpoint: mean survival time, dose: 120.0 mg/kg/injection, schedule: Q01DX001 (ip), vehicle: saline with Tween-80) 101 % of control.

On to `COc1ccc(Cl)cc1C/C=N/N(C)C`, for which the T/C runs as follows: (endpoint: mean survival time, dose: 75.0 mg/kg/injection, schedule: Q01DX001 (ip), vehicle: saline) 103 % of control; (endpoint: mean survival time, dose: 150.0 mg/kg/injection, schedule: Q01DX001 (ip), vehicle: saline) 105 % of control.

In the case of `O=c1[nH]cc(F)c(=O)n1C1CCCCO1` (configuration not stated), the T/C was 121 % of control (endpoint: mean survival time, dose: 12.5 mg/kg/injection, schedule: Q01DX009 (ip), vehicle: saline); 98 % of control (endpoint: mean survival time, dose: 12.5 mg/kg/injection, schedule: Q04DX003 (ip), vehicle: saline); 102 % of control (endpoint: mean survival time, dose: 25.0 mg/kg/injection, schedule: Q04DX003 (ip), vehicle: saline); 156 % of control (endpoint: mean survival time, dose: 50.0 mg/kg/injection, schedule: Q01DX009 (ip), vehicle: saline); 98 % of control (endpoint: mean survival time, dose: 50.0 mg/kg/injection, schedule: Q04DX003 (ip), vehicle: saline); 175 % of control and 184 % of control (endpoint: mean survival time, dose: 100.0 mg/kg/injection, schedule: Q01DX009 (ip), vehicle: saline). Also, the T/C (endpoint: mean survival time, dose: 100.0 mg/kg/injection, schedule: Q04DX003 (ip), vehicle: saline) is 100 % of control.

Regarding `CC(=O)n1cc(CS)c(=O)[nH]c1=O`, the T/C was 105 % of control under setting [1]; 98 % of control under setting [2]; 105 % of control under setting [3]; 105 % of control (endpoint: mean survival time, dose: 40.0 mg/kg/injection, schedule: Q01DX001 (ip), vehicle: saline); 105 % of control (endpoint: mean survival time, dose: 80.0 mg/kg/injection, schedule: Q01DX001 (ip), vehicle: saline).

On to `OCCC(c1ccccc1)(c1ccccc1)c1ccccc1`, for which the T/C is 113 % of control under setting [15], 108 % of control under setting [16] and 100 % of control under setting [17].

For the molecule `CC1CCC(CC(N)=O)C1(C)C` (configuration not stated), the T/C is 97 % of control (endpoint: mean survival time, dose: 100.0 mg/kg/injection, schedule: Q01DX001 (ip), vehicle: saline with Tween-80); 105 % of control (endpoint: mean survival time, dose: 200.0 mg/kg/injection, schedule: Q01DX001 (ip), vehicle: saline with Tween-80); 97 % of control (endpoint: mean survival time, dose: 400.0 mg/kg/injection, schedule: Q01DX001 (ip), vehicle: saline with Tween-80).

Take `Nc1ncnc2c1ncn2C1CC(O)C(O)CO1` (configuration not stated): the T/C under setting [12] is 103 % of control, the T/C under setting [13] was 105 % of control and the T/C under setting [14] was 105 % of control.

In the case of `O[Si](c1ccccc1)(c1ccccc1)c1ccccc1`, the T/C under setting [9] is 102 % of control, the T/C under setting [10] is 97 % of control and the T/C under setting [11] was 92 % of control.
